Results on 6 compounds are retold here after ChEMBL document CHEMBL1201862, “PubChem BioAssay data set” (2004).

Common to all, as to assay: NCI tumour cell line growth inhibition, 48 h
In test [1] the test system is MOLT-4.
Test [2] deals with OVCAR-3.
Test [3] has as its system Hs-578T.
The subject of test [4] is MDA-N.
In test [5] the test system is CCRF-CEM.
Test [6] deals with TK-10.
Test [7] deals with ACHN.
Test [8] has as its system BT-549.
Test [9] concerns DU-145.
The subject of test [10] is SK-OV-3.
For test [11], the system named is SF-268.
The subject of test [12] is CAKI-1.
The test system of test [13] is M14.
The subject of test [14] is K562.
The test system of test [15] is UACC-62.
Test [16] has as its system OVCAR-5.
The subject of test [17] is SF-539.
Test [18] concerns SK-MEL-28.
Test [19] concerns UO-31.
In test [20] the test system is OVCAR-8.

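Where inhibition never reached the appropriate level, the endpoint shown equals the highest concentration tested. Otherwise, values were interpolated linearly from a five-concentration, 48-hour dose response in 96-well plates. GI50 is the concentration that inhibits growth by half.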 Calls of active or inactive are those of the source. Cut-off read from the data, not from the text of the source: active = GI50 up to about 1.1 µM and inactive = higher. Non-standard residues stand in square brackets, D forms with d. Residues, ends and D or L forms follow the SMILES beside them. ξ: configuration not given here. *: point of attachment. NMeY = CN[C@@H](Cc1ccc(O)cc1)C(=O)O; Cbz = O=C(OCc1ccccc1)*; ξA = CC(N)C(=O)O Bounds are passed on as bounds.

On to `OCCSCc1ccccc1`, for which the GI50 in test [1], in [2], in [3], in test [4], in test [5] and in [6] was > 100 µM (inactive) in each case. Further, the GI50 in test [7], in [8], in test [9], in test [10], in [11] and in test [12] was > 100 µM (inactive) throughout. The GI50 in [13], in test [14], in [15], in test [16], in test [17] and in test [18] was > 100 µM (inactive) each time. Further, the GI50 in [19] and in test [20] was > 100 µM (inactive) each time.
With `Cc1cn([C@H]2C[C@@H](N3C(=O)c4ccccc4C3=O)[C@@H](CO[Si](C)(C)C(C)(C)C)O2)c(=O)[nH]c1=O`, the GI50 in test [1] is 36.9 µM (inactive); in [2], > 100 µM (inactive); in test [3], 21.2 µM (inactive); in test [4], > 100 µM (inactive); in [5] it was 36 µM (inactive); in test [6], > 100 µM (inactive). For the same compound, the GI50 in [7] is 62.7 µM (inactive); in [8] it was > 100 µM (inactive); in test [9] it was > 100 µM (inactive); in test [10] it was 30.1 µM (inactive); in test [11], 30.6 µM (inactive); in [12] it was 53.3 µM (inactive). Further, the GI50 in test [13] was > 100 µM (inactive); in [14], 52.5 µM (inactive); in test [15] it was 23.8 µM (inactive); in [16], > 100 µM (inactive); in test [17] it was 27.5 µM (inactive); in [18], > 100 µM (inactive). The results for the GI50 in test [19] and in [20] were 52.5 µM (inactive) and 32.5 µM (inactive), respectively.
For `CCCCCCCCCCCCCCCCCCNc1ccn(C2OC(CO)C(OP(=O)(O)OCC(COP(=O)(O)OCC3OC(n4cc(F)c(NCCCCCCCCCCCCCCCCCC)nc4=O)CC3O)OC(=O)CCCCCCCCCCCCCCC)C2O)c(=O)n1` (stereo not given), the GI50 is > 100 µM (inactive) in [1]; > 100 µM (inactive) in [2]; > 100 µM (inactive) in [3]; > 100 µM (inactive) in test [4]; 95.3 µM (inactive) in [5]; > 100 µM (inactive) in test [6]. Besides, the GI50 in [7], in test [8], in [9], in test [10], in [11] and in [12] was > 100 µM (inactive) throughout. Moreover, the GI50 in test [13] is > 100 µM (inactive); in [14], 3.01 µM (inactive); in [15], > 100 µM (inactive); in [16], > 100 µM (inactive); in test [17] it was > 100 µM (inactive); in test [18] it was > 100 µM (inactive). Also, the GI50 in [19] and in test [20] was > 100 µM (inactive) throughout.
For the compound `Cn1cnc2c(OCC3CCCCC3)nc(N)nc21`, the GI50 in [1], in test [2], in test [3], in test [4], in [5] and in [6] was > 100 µM (inactive) each time. In addition, the GI50 is < 0.01 µM (active) in test [7]; > 100 µM (inactive) in test [8]; > 100 µM (inactive) in test [9]; > 100 µM (inactive) in [10]; > 100 µM (inactive) in test [11]; > 100 µM (inactive) in [12]. The GI50 in test [13], in test [14], in test [15], in test [16], in test [17] and in test [18] was > 100 µM (inactive) throughout. For the same compound, the GI50 in [19] was 72.9 µM (inactive); in test [20], > 100 µM (inactive).
`COc1ccc(C[C@@H](C(=O)NCC(N)=O)N(C)C(=O)[C@@H]2CCCN2C(=O)[C@H](CC(C)C)NC(=O)C(C)NC(=O)OCc2ccccc2)cc1` (stereo not given in full) (Cbz-[ξA]LP[NMeY](Me)G-NH2): the GI50 in [1], in test [2], in test [3], in [4], in [5] and in test [6] was > 100 µM (inactive) each time. Besides, the GI50 in [7], in test [8], in test [9], in test [10], in test [11] and in [12] was > 100 µM (inactive) in each case. Also, the GI50 in test [13], in [14], in test [15], in test [16], in test [17] and in test [18] was > 100 µM (inactive) in each case. Besides, the GI50 in test [19] and in test [20] was > 100 µM (inactive) in each case.
On to `Cc1nc(N)nc(N)c1-c1ccc(Cl)c(Cl)c1` [METOPRINE], for which the GI50 in test [1] is 0.607 µM (active); in [2], 3.75 µM (inactive); in test [3] it was 4.72 µM (inactive); in [4], 0.141 µM (active); in [5] it was 0.432 µM (active); in [6], 9.2 µM (inactive). Further, the GI50 in test [7] was 0.495 µM (active); in test [8], 21 µM (inactive); in test [9], 1.72 µM (inactive); in test [10], 3.48 µM (inactive); in [11], 1 µM (active); in test [12], 5.18 µM (inactive). The GI50 in test [13] is 0.162 µM (active); in test [14], 0.0219 µM (active); in test [15], 0.355 µM (active); in test [16], 14.2 µM (inactive); in test [17], 1.21 µM (inactive); in [18], 4.6 µM (inactive). Also, the GI50 in [19] is 1.15 µM (inactive); in test [20], 0.603 µM (active).
